Test system: bacteria in clinical bovine mastitis milk samples
Assay: Combined bacteria identification and antimicrobial susceptibility test (colour of wells, MIC) on clinical bovine mastitis milk samples
Assay type: cell-based
Method: Clinical bovine mastitis milk samples were collected by a vet clinic in South Island, New Zealand. Samples were stored in the freezer for several months and shipped frozen to the testing facility. In this Example, the term “clinical” means that dairy cows had clinical symptoms of an udder infection e.g. cow behaved unusual, milk clots, swollen udder among other typical symptoms. Testing was executed in microwell plate comprising of 24 wells (3×8 wells).
In addition, 20 ul of clinical mastitis sample was added to each well with a laboratory pipette.
Abbreviations • 1. 80 ul GC+10 ul Tell: 80 ul Giolitti Cantoni base broth+10 ul Tellurite solution (1%); • 2. 80 ul TSB/Esc/Fer Cit: 80 ul Tryptic soy broth containing 0.25% Esculin and 0.125% Ammonium Ferric Citrate; • 3. 80 ul TSB/Esc/Fer Cit+10 ul Genta: 80 ul Tryptic soy broth containing 0.25% Esculin and 0.125% Ammonium Ferric Citrate+10 ul of Gentamycin solution 10 mg/ml; • 4. 80 ul McC/PR25: 80 ul MacConkey broth (single strength) containing 0.0125% phenol red; and • 5. 80 ul TSB/PR25: 80 ul Tryptic soy broth containing 0.0125% phenol red. Bacteria Identification
Columns A to C and rows 1 and 2 were used for bacteria identification. A1: coagulase positive Staph; A2: Staphylococci; B1: Strep group D; B2: Strep group D; C1: general enrichment media (gram+ and gram-bacteria); C2: coliform bacteria.
Column A3 to A8: serial dilution of benzyl penicillin as potassium. Column B3 to B8: serial dilution of ceftiofur as hydrochloride. Column C3 to C8: serial dilution of cloxacillin as sodium. Antibiotic concentrations are listed as free form ranging between 4 ug/ml to 0.05 ug/ml.
Minimum inhibitory substance concentration (MIC) is here defined as the concentration if a colour change occurs between two wells (one well remains red with drug concentration 1, the other one yellow with drug concentration 2, whereas drug concentration 1 is larger than drug concentration 2) then the MIC is the value of drug concentration 1.
Table 21 indicates the microwell plate configuration #1; Drugs: Benzylpenicillin as potassium; Cloxacillin as sodium; Ceftiofur as hydrochloride; Drug concentration in each well (A3 to C8) is based on 80 μl composition+10 μl drug solution+20 μl clinical mastitis milk sample and equivalent to listed drug concentration in μg/ml; 20 ul of clinical bovine mastitis milk sample was added to each well (A1 to C8).
In addition, each well received one drop of clinical sample from a transfer pipette which was on average about 35 mg. This was determined through weighing the well plate prior and after the addition of clinical mastitis samples. This weight was then divided by 24.
• 1. 80 ul GC+10 ul Tell: 80 ul Giolitti Cantoni base broth+10 ul Tellurite solution (1%); • 2. 80 ul TSB/Esc/Fer Cit: 80 ul Tryptic soy broth containing 0.25% Esculin and 0.125% Ammonium Ferric Citrate; • 3. 80 ul TSB/Esc/Fer Cit+10 ul Genta: 80 ul Tryptic soy broth containing 0.25% Esculin and 0.125% Ammonium Ferric Citrate+10 ul of Gentamycin solution 10 mg/ml; • 4. 80 ul McC/PR25: 80 ul MacConkey broth (single strength) containing 0.0125% phenol red; and • 5. 80 ul TSB/PR25: 80 ul Tryptic soy broth containing 0.0125% phenol red.
Columns A to C and rows 1 and 2 were used for bacteria identification. A1: coagulase positive Staph; A2: Staphylococci; B1: Strep Group D; B2: -; C1: general enrichment media (gram+ and gram-); C2: coliform bacteria.
Column A3 to A8: serial dilution of benzyl penicillin as potassium. Drug concentrations given as free form ranging between 4 ug/ml to 0.05 ug/ml. Column B3 to B8: serial dilution of ceftiofur as hydrochloride. Drug concentrations given as free form ranging between 4 ug/ml to 0.05 ug/ml. Column C3 to C8: serial dilution of cloxacillin as sodium. Drug concentrations given as free form ranging between 4 ug/ml to 0.05 ug/ml.

CC1(C)S[C@@H]2[C@H](NC(=O)Cc3ccccc3)C(=O)N2[C@H]1C(=O)O [benzyl penicillin]
Colour of media in each well (ID 1, T = 22 h, 37° C., plate configuration #1, drug 0.05 μg/ml): orange | Colour of media in each well (ID 1, T = 22 h, 37° C., plate configuration #1, drug 0.1 μg/ml): red | Colour of media in each well (ID 1, T = 22 h, 37° C., plate configuration #1, drug 0.5 μg/ml): red | Colour of media in each well (ID 1, T = 22 h, 37° C., plate configuration #1, drug 1 μg/ml): red | Colour of media in each well (ID 1, T = 22 h, 37° C., plate configuration #1, drug 2 μg/ml): red | Colour of media in each well (ID 1, T = 22 h, 37° C., plate configuration #1, drug 4 μg/ml): red | Colour of media in each well (ID 2, T = 48 h, 37° C., plate configuration #1, drug 0.05 μg/ml): yellow | Colour of media in each well (ID 2, T = 48 h, 37° C., plate configuration #1, drug 0.1 μg/ml): yellow | Colour of media in each well (ID 2, T = 48 h, 37° C., plate configuration #1, drug 0.5 μg/ml): yellow | Colour of media in each well (ID 2, T = 48 h, 37° C., plate configuration #1, drug 1 μg/ml): yellow | Colour of media in each well (ID 2, T = 48 h, 37° C., plate configuration #1, drug 2 μg/ml): yellow | Colour of media in each well (ID 2, T = 48 h, 37° C., plate configuration #1, drug 4 μg/ml): yellow | Colour of media in each well (ID 3, T = 22 h, 37° C., plate configuration #1, drug 0.05 μg/ml): yellow | Colour of media in each well (ID 3, T = 22 h, 37° C., plate configuration #1, drug 0.1 μg/ml): yellow | Colour of media in each well (ID 3, T = 22 h, 37° C., plate configuration #1, drug 0.5 μg/ml): yellow | Colour of media in each well (ID 3, T = 22 h, 37° C., plate configuration #1, drug 1 μg/ml): yellow | Colour of media in each well (ID 3, T = 22 h, 37° C., plate configuration #1, drug 2 μg/ml): yellow | Colour of media in each well (ID 3, T = 22 h, 37° C., plate configuration #1, drug 4 μg/ml): yellow | Colour of media in each well (ID 3, T = 23 h, 37° C., Table 34, drug 0.05 μg/ml): yellow | Colour of media in each well (ID 3, T = 23 h, 37° C., Table 34, drug 0.1 μg/ml): yellow | Colour of media in each well (ID 3, T = 23 h, 37° C., Table 34, drug 0.5 μg/ml): yellow | Colour of media in each well (ID 3, T = 23 h, 37° C., Table 34, drug 1 μg/ml): yellow | Colour of media in each well (ID 3, T = 23 h, 37° C., Table 34, drug 2 μg/ml): yellow | Colour of media in each well (ID 3, T = 23 h, 37° C., Table 34, drug 4 μg/ml): yellow | Colour of media in each well (ID 3, T~7 h, 37° C., Table 34, drug 0.05 μg/ml): red | Colour of media in each well (ID 3, T~7 h, 37° C., Table 34, drug 0.1 μg/ml): red | Colour of media in each well (ID 3, T~7 h, 37° C., Table 34, drug 0.5 μg/ml): red | Colour of media in each well (ID 3, T~7 h, 37° C., Table 34, drug 1 μg/ml): red | Colour of media in each well (ID 3, T~7 h, 37° C., Table 34, drug 2 μg/ml): red | Colour of media in each well (ID 3, T~7 h, 37° C., Table 34, drug 4 μg/ml): red | Colour of media in each well (ID 3, T~11 h, 37° C., Table 34, drug 0.05 μg/ml): red | Colour of media in each well (ID 3, T~11 h, 37° C., Table 34, drug 0.1 μg/ml): red | Colour of media in each well (ID 3, T~11 h, 37° C., Table 34, drug 0.5 μg/ml): red | Colour of media in each well (ID 3, T~11 h, 37° C., Table 34, drug 1 μg/ml): red | Colour of media in each well (ID 3, T~11 h, 37° C., Table 34, drug 2 μg/ml): red | Colour of media in each well (ID 3, T~11 h, 37° C., Table 34, drug 4 μg/ml): red | Colour of media in each well (ID 4, T = 22 h, 37° C., plate configuration #1, drug 0.05 μg/ml): yellow | Colour of media in each well (ID 4, T = 22 h, 37° C., plate configuration #1, drug 0.1 μg/ml): yellow | Colour of media in each well (ID 4, T = 22 h, 37° C., plate configuration #1, drug 0.5 μg/ml): yellow | Colour of media in each well (ID 4, T = 22 h, 37° C., plate configuration #1, drug 1 μg/ml): orange | Colour of media in each well (ID 4, T = 22 h, 37° C., plate configuration #1, drug 2 μg/ml): orange | Colour of media in each well (ID 4, T = 22 h, 37° C., plate configuration #1, drug 4 μg/ml): yellow | Colour of media in each well (ID 5, T = 23 h, 37° C., plate configuration #2, drug 0.05 μg/ml): red | Colour of media in each well (ID 5, T = 23 h, 37° C., plate configuration #2, drug 0.1 μg/ml): red | Colour of media in each well (ID 5, T = 23 h, 37° C., plate configuration #2, drug 0.5 μg/ml): red | Colour of media in each well (ID 5, T = 23 h, 37° C., plate configuration #2, drug 1 μg/ml): red | Colour of media in each well (ID 5, T = 23 h, 37° C., plate configuration #2, drug 2 μg/ml): red | Colour of media in each well (ID 5, T = 23 h, 37° C., plate configuration #2, drug 4 μg/ml): red | Colour of media in each well (ID 5 to 8, T = 0 h (prior incubation, reference), plate configuration #2, drug 0.05 μg/ml): red | Colour of media in each well (ID 5 to 8, T = 0 h (prior incubation, reference), plate configuration #2, drug 0.1 μg/ml): red | Colour of media in each well (ID 5 to 8, T = 0 h (prior incubation, reference), plate configuration #2, drug 0.5 μg/ml): red

Source: patent US10829796B2, “Bacteria identification and antimicrobial susceptibility test” (priority 2015, dated 2020)
